The numbers were not newly measured in patent publication US20180344690A1, “Methods and Formulation for Enhancing Response to Radiotherapy” (The Board of Trustees of the Leland Stanford Junior …, priority 2017, published 2018), which cites them from elsewhere.

One series has as its system multiple myeloma (MM). The note with it: cited from earlier work.
The subject of another series is APL. The note with it: untreated control 18 days; cytarabine vs cytarabine+Plerixafor p<0.0006; cited from earlier work.

As to `CC(C)C[C@H](NC(=O)[C@H](Cc1ccccc1)NC(=O)c1cnccn1)B(O)O` [bortezomib], the tumor progression result in the series with multiple myeloma (MM) (bortezomib vs control P=0.041, combination vs control P=0.001, vs bortezomib alone P=0.021) is recorded as “reduction in tumor progression compared with control”. For the same molecule, in the series on multiple myeloma (MM) (mouse, in vivo), the “tumor involvement in BM, liver and spleen” value is given as “significant decrease of tumor cells”.
Take `Nc1ccn([C@@H]2O[C@H](CO)[C@@H](O)[C@@H]2O)c(=O)n1` [cytarabine]: the median overall survival in the series on APL is given as 23 days.
